Experiment in all cases: NCI60 five-dose screen, panel mean
What all share (type): cell-based

Assay [1] concerns Breast Cancer panel. The following applies: Homo sapiens; mean over Breast Cancer panel. The method, then: (§1) Since all new conjugates (3a–h) had notable antiproliferative activities on several tumor cell lines in the course of the one-dose screening, they were subjected to a five-dose test. […] J. Mol. Sci. 2025, 26, 11063 10 of 10 S.3. NCI60 Screening A detailed description of the NCI screening procedures can also be found on the website of NCI [39], and in our previous work. S.3.1. One-Dose Screen All candidates were examined at first at a single high dose (10 μM) in the full NCI60 cell panel. The value reported for the one-dose test is growth relative to the no-drug control and relative to the time zero number of cells. This made possible the disclosure of both growth inhibition (numbers between 0 and 100) and lethality (numbers less than 0). For example, a value of 100 means no growth inhibition. A value of 20 would mean 80% growth inhibition. A value of 0 means no net growth over the course of the analysis. A value of −20 would mean 20% lethality. A value of −100 means all cells are dead. S.3.2. […] The human tumor cell lines of the cancer screening panel were grown in RPMI 1640 medium containing 5% fetal bovine serum and 2 mM l-glutamine. Characteristically, cells were injected in 96-well microtiter plates in 0.1 mL at plating densities ranging from 5000 to 40,000 cells/well, depending on the doubling time of individual cell lines. After cell inoculation, the microtiter plates were incubated at 37 °C, 5% carbon dioxide, 95% air, and 100% relative humidity for 24 hours before the addition of tested compounds. After 24 hours, 2 plates of each cell line were fixed in situ with Cl3COOH (TCA), to represent a measurement of the cell population for each cell line at the time of drug addition (tz). Tested compounds were solubilized in DMSO at 400-fold the desired final maximum test concentration and stored frozen before application. In the course of the drug addition, an aliquot of frozen concentrate was thawed and diluted to twice the desired final maximum test concentration with a complete medium containing 50 μg mL−1 gentamicin. Additional four, 10-fold or ½ log serial dilutions were produced to furnish a total of five drug concentrations plus control. Aliquots of 0.1 mL of these different drug dilutions were added to the appropriate microtiter wells already containing 0.1 mL of medium, resulting in the required final drug concentrations. Following drug addition, the plates were incubated at 37 °C, 5% carbon dioxide, 95% air, and 100% relative humidity for an additional 48 hours. For adherent cells, the test was finished by the addition of cold Cl3COOH. Cells were fixed in situ by the addition of 50 μL of cold 50% (w/v) Cl3COOH, and incubated at 4 °C for 1 hour. The supernatant was discarded, and the plates were washed with H2O (5×) and dried in air. Sulforhodamine B (SRB) solution (0.1 mL) at 0.4% (w/v) in 1% CH3COOH was added to each well, and plates were incubated at RT for 10 min. After staining, the unbound dye was removed by washing five times with 1% CH3COOH, and the plates were dried in the air. The bound stain is afterward solubilized with a 10 mM trizma base, and the absorbance is read on an automated plate reader at λ = 515 nm. Utilizing the seven absorbance measurements [time zero (tz), control growth (c), and test growth in the presence of the drug at the five concentration levels (ti)], the percentage growth was determined at each of the drug concentration levels. Growth inhibition (%) was calculated as: [(ti − tz)/(c − tz)] × 100, for concentrations where ti ≥ tz (1) [(ti − tz)/(tz)] × 100, for concentrations where ti < tz. (2) Three dose‒response parameters were calculated as follows. GI50 (growth inhibition of 50%) was determined from Equation (3), which is the drug concentration resulting in a 50% reduction in the net protein increase (as measured by SRB staining) in control cells in the course of the drug incubation. [(ti − tz)/(c − tz)] × 100 = 50 (3)

The test system of assay [2] is CNS Cancer panel. The following applies: Homo sapiens; mean over CNS Cancer panel. The method, then:
as §1

Assay [3] has as its system Colon Cancer panel. As to conditions: Homo sapiens; mean over Colon Cancer panel. As to the method:
as §1

Assay [4] has as its system Leukemia panel. As to conditions: Homo sapiens; mean over Leukemia panel. As to the method:
as §1

Assay [5] has as its system Melanoma panel. As to conditions: Homo sapiens; mean over Melanoma panel. As to the method: as §1
Assay [6] has as its system Non-small-Cell Lung Cancer panel. As to conditions: Homo sapiens; mean over Non-small-Cell Lung Cancer panel. As to the method: as §1
Assay [7] deals with Ovarian Cancer panel. As to conditions: Homo sapiens; mean over Ovarian Cancer panel. As to the method: as §1
Assay [8] deals with Prostate Cancer panel. The following applies: Homo sapiens; mean over Prostate Cancer panel. The method, then:
as §1

Assay [9] concerns Renal Cancer panel. As to conditions: Homo sapiens; mean over Renal Cancer panel. As to the method:
as §1

As for `COc1ccc([P+](CCCCOc2cc(O)c3c(=O)cc(-c4ccccc4)oc3c2)(c2ccc(OC)cc2)c2ccc(OC)cc2)cc1` [3c], the GI50 in assay [1] came out at 330 nM; in [2], 460 nM; in [3], 640 nM; in assay [4] it was 340 nM; in assay [5], 350 nM; in assay [6] it was 590 nM. For the same compound, the GI50 in assay [7] came out at 760 nM; in assay [8], 370 nM; in assay [9], 1030 nM.
For `Cc1ccccc1[P+](CCCCOc1cc(O)c2c(=O)cc(-c3ccccc3)oc2c1)(c1ccccc1C)c1ccccc1C` [3g], the GI50 in [1] came out at 250 nM; in assay [2] it was 330 nM; in [3], 580 nM; in [4], 210 nM; in [5], 270 nM; in [6], 450 nM. Besides, the GI50 in assay [7] was found to be 820 nM; in [8], 340 nM; in assay [9] it was 580 nM.
As for `O=c1cc(-c2ccccc2)oc2cc(OCCCC[P+](c3ccccc3)(c3ccccc3)c3ccccc3)cc(O)c12` [3a], the GI50 in [1] was 240 nM; in [2], 300 nM; in assay [3], 620 nM; in assay [4], 260 nM; in assay [5] it was 300 nM; in assay [6], 460 nM. Moreover, the GI50 is 890 nM in assay [7], 410 nM in [8] and 530 nM in assay [9].
For the compound `O=c1cc(-c2ccccc2)oc2cc(OCCCC[P+](C3CCCCC3)(C3CCCCC3)C3CCCCC3)cc(O)c12` [3e], the GI50 in [1] amounted to 590 nM; in assay [2], 750 nM; in [3], 940 nM; in [4] it was 420 nM; in assay [5], 550 nM; in [6], 1070 nM. Moreover, the GI50 turned out to be 1950 nM in [7], 870 nM in [8] and 1300 nM in assay [9].
As for `COc1c(C)cc([P+](CCCCOc2cc(O)c3c(=O)cc(-c4ccccc4)oc3c2)(c2cc(C)c(OC)c(C)c2)c2cc(C)c(OC)c(C)c2)cc1C` [3f], the GI50 in assay [1] came to 220 nM; in assay [2], 280 nM; in [3] it was 410 nM; in [4], 120 nM; in [5] it was 310 nM; in [6], 290 nM. Also, the GI50 in assay [7] amounted to 510 nM; in assay [8], 310 nM; in assay [9], 320 nM.
Turning to `O=c1cc(-c2ccccc2)oc2cc(OCCCC[P+](c3ccccc3)(c3ccccc3)c3ccccn3)cc(O)c12` [3h], the GI50 in assay [1] worked out at 530 nM; in assay [2] it was 770 nM; in assay [3], 1070 nM; in assay [4] it was 260 nM; in assay [5], 520 nM; in [6], 1070 nM. Also, the GI50 in assay [7] worked out at 1890 nM; in [8], 900 nM; in assay [9], 1350 nM.
As for `O=c1cc(-c2ccccc2)oc2cc(OCCCC[P+](c3ccc(F)cc3)(c3ccc(F)cc3)c3ccc(F)cc3)cc(O)c12` [3d], the GI50 was 1610 nM in [1]; 1670 nM in assay [2]; 1690 nM in assay [3]; 1710 nM in assay [4]; 1740 nM in [5]; 1970 nM in [6]. In addition, the GI50 in assay [7] stood at 3900 nM; in assay [8], 1740 nM; in assay [9], 2100 nM.
Take `Cc1ccc([P+](CCCCOc2cc(O)c3c(=O)cc(-c4ccccc4)oc3c2)(c2ccc(C)cc2)c2ccc(C)cc2)cc1` [3b]: the GI50 was found to be 250 nM in assay [1]; 300 nM in [2]; 390 nM in assay [3]; 220 nM in [4]; 320 nM in assay [5]; 310 nM in assay [6]. Moreover, the GI50 is 480 nM in assay [7], 200 nM in assay [8] and 310 nM in [9].

One may read the GI50 as the concentration giving 50% growth inhibition.

(Values after publication PMC12652692, “Synthesis and In Vitro Anticancer Evaluation of Novel Phosphonium Derivatives of Chrysin” (International Journal of Molecular Sciences, 2025).)
